# Results published in patent publication US4199598A, “Method of treating noradrenaline dysfunction or for dopamine-β-hydroxylase inhibition” (Richter Gedeon Vegyeszeti Gyar Rt., priority 1976, dated 1980).
# What was measured:
# dopamine-β-hydroxylase [1] = details: in vitro, in words, prior art; cited from earlier work
# Toxicity (LD50), rats = details: rat, in vivo, ip
# dopamine-β-hydroxylase [2] = assay: Adrenaline content of adrenal gland (dopamine-β-hydroxylase inhibiting effect); assay type: in vivo, male Wister rats; details: rats, i.p., 4 hours
# Procedure: (§1) The dopamine-β-hydroxylase inhibiting effects of the compounds according to the invention were examined by the following tests:
# (§2) The tests were performed on male Wister rats weighing 150 to 200 g. The dopamine-β-hydroxylase inhibiting effects of the compounds were evaluated by determining the change of noradrenaline, dopamine and adrenaline levels of the cerebrum, heart, spleen and adrenal gland. The serotonine and 5-hydroxy-indolyl-acetic acid levels of the cerebrum were also determined. The measurements were performed as follows:
# (§3) The animals were decapitated, the cerebrum, heart, spleen and adrenal gland were removed quickly, and the organs were frozen by placing them onto a metal sheet cooled with dry ice. The frozen organs were stored for a maximum of one night at -20° C.
# Determination of the adrenaline content of adrenal gland
# The adrenal glands were freed from fat and homogenized in 3.0 ml of ice-cold 0.4 N perchloric acid. The homogenized mixtures were centrifuged for 10 minutes at 0° C. with a speed of 3200 r.p.m. on a Janetzky K-70 type centrifuge. 0.05 ml samples were taken from the supernatant, and the adrenaline level was determined directly by the method of Laverty et al (Anal. Biochem., Vol. 22, p. 269, 1968).
# (§4) In the tests disulfiram, 2,2-dipyridyl, bis(1-methyl-4-homopiperazinyl-thiocarbonyl)-disulfide, sodium diethyldithiocarbamate and N-phenyl-N'-(2-thiazolyl)-thiourea were used as reference substances. The values indicated in Table 1 are percentages in relation to the amine levels of the controls measured in the same tests (± Standard Error). The statistical calculations were performed on a TPA/i type computer, using Student's test.
# dopamine-β-hydroxylase [3] = assay: Noradrenaline, dopamine, serotonine and 5-hydroxy-indolylacetic acid contents of cerebrum (dopamine-β-hydroxylase inhibiting effect); assay type: in vivo, male Wister rats; details: rats, i.p., 4 hours
# Procedure: as §1, §2, §3
# (§5) Noradrenaline was determined according to the method of Shellenberger et al (Anal. Biochem., Vol. 39, p. 356, 1971), with the following modifications of the basic procedure: 0.5 ml of 0.1 molar Na-K-phosphate buffer, containing 9 g/l of EDTA-Na2, were added to 0.5 ml of the eluate, and the catecholamines (noradrenaline in the examination of heart and spleen and noradrenaline and dopamine in the examination of the cerebrum) were oxidized with 0.1 ml of a 0.1 N iodine solution in 5% potassium iodide. […] Thereafter the samples were placed for 5 minutes in a drying oven heated to 100° C., and then the samples were cooled with ice water. The fluorescence of noradrenaline was measured with an OPTON spectrophotometer at wavelengths of 390 nm (excitation) and 490 nm (emission).
# Determination of the noradrenaline, dopamine, serotonine and 5-hydroxy-indolylacetic acid contents of cerebrum
# The brains were homogenized in 10 parts by volume of 0.4 N perchloric acid. The homogenized mixture was stored at -20° C. overnight; thereafter it was thawed and centrifuged as described above. A sample of homogenized mixture corresponding to 0.5 g of brain was removed, the pH of the sample was adjusted to 8.0±0.1 with 0.1 molar tris-buffer of the above composition, and the sample was processed as described above for the determination of the noradrenaline content of heart and spleen, with the difference that 1.5 ml of 0.05 N perchloric acid were applied as eluting agent. 0.5 ml of the eluate were applied to determine the noradrenaline and dopamine content. The measurement was performed as described above, with the difference that samples of 0.5 ml were applied for the recording of the fluorescence of noradrenaline. The residue was placed for 50 minutes into a drying oven heated to 100° C.; thereafter the sample was cooled with ice water, and the fluorescence of dopamine was recorded at wavelengths of 325 nm (excitation) and 380 nm (emission).
# In a further test series the serotonine and 5-hydroxy-indolylacetic acid contents were also determined, in addition to the determination of the noradrenaline and dopamine contents, from the same sample. In this instance the brains were homogenized in 10 ml of 75% ethanol, 0.2 ml of EDTA-Na2 and 5% of ascorbic acid were added to the homogenized mixtures, and the homogenized mixtures were maintained at -20° C. overnight. The mixtures were then centrifuged as described above, and 5.0 ml samples of the supernatant were removed. The samples were diluted with equal volumes of distilled water, and poured onto ion-exchange columns of 0.5×1.5 cm dimensions, filled with buffered Amberlite CG-30 (200 to 400 mesh). The columns were washed with 5 ml of distilled water followed with 1.0 ml of 0.2 N hydrochloric acid, and the first effluent and the aqueous wash were collected for the determination of 5-hydroxy-indolylacetic acid. Elution was continued with further 1.2 ml of 0.2 N hydrochloric acid in order to remove noradrenaline, dopamine and serotonine. Samples of 0.3 ml were used for the determinations. […]
# dopamine-β-hydroxylase [4] = assay: Noradrenaline content of heart (dopamine-β-hydroxylase inhibiting effect); assay type: in vivo, male Wister rats; details: rats, i.p., 4 hours
# Procedure: as §1, §2, §3
# (§6) Determination of the noradrenaline content of heart and spleen
# (§7) The organs were weighed in frozen state and then homogenized in 5.0 ml of 0.4 N perchloric acid containing 0.05% of EDTA-Na2 and 0.1% of Na2 S2 O5. The homogenized mixtures were centrifuged as described above for the treatment of adrenal gland, the supernatants were decanted, and the pH was adjusted to 8.0±0.1 with a 0.1 molar tris buffer containing 20 g/l of NaOH and 25 g/l of EDTA-Na2. 100 mg of prepared Al2 O3 (Anton et al: J. Pharm. Ther., Vol. 138, p. 360, 1962) were added to the samples, and the mixtures were shaken mechanically for 20 minutes. Thereafter the Al2 O3 were washed with 2.10 ml of distilled water, and the noradrenaline was eluted with 1.0 ml of 0.05 N perchloric acid. 0.5 ml samples of the eluate were applied for the determination of noradrenaline.
# as §5, §4
# dopamine-β-hydroxylase [5] = assay: Noradrenaline content of spleen (dopamine-β-hydroxylase inhibiting effect); assay type: in vivo, male Wister rats; details: rats, i.p., 37.5 mg/kg, 4 hours
# Procedure: as §1, §2, §3, §6, §7, §5, §4
structure (smiles),measurement,setting,value
"c1ccc(-c2ccccn2)nc1 [2,2-D, 2,2-dipyridyl, reference compound]",dopamine-β-hydroxylase inhibition in vitro,dopamine-β-hydroxylase [1],effective under in vitro conditions
same,LD50,"Toxicity (LD50), rats",150 mg/kg
same,"Amine level, adrenal gland AD (adrenaline)",dopamine-β-hydroxylase [2]; 37.5 mg/kg,80 percentages in relation to the controls
same,"Amine level, adrenal gland AD (adrenaline)",dopamine-β-hydroxylase [2]; 75 mg/kg,63 percentages in relation to the controls
same,"Amine level, cerebrum DA (dopamine)",dopamine-β-hydroxylase [3]; 37.5 mg/kg,116 percentages in relation to the controls
same,"Amine level, cerebrum NA (noradrenaline)",dopamine-β-hydroxylase [3]; 37.5 mg/kg,79.5 percentages in relation to the controls
same,"Amine level, cerebrum DA (dopamine)",dopamine-β-hydroxylase [3]; 75 mg/kg,95 percentages in relation to the controls
same,"Amine level, cerebrum NA (noradrenaline)",dopamine-β-hydroxylase [3]; 75 mg/kg,41.2 percentages in relation to the controls
same,"Amine level, cerebrum SE (serotonine)",dopamine-β-hydroxylase [3]; 75 mg/kg,100 percentages in relation to the controls
same,"Amine level, heart NA (noradrenaline)",dopamine-β-hydroxylase [4]; 37.5 mg/kg,104 percentages in relation to the controls
same,"Amine level, heart NA (noradrenaline)",dopamine-β-hydroxylase [4]; 75 mg/kg,58 percentages in relation to the controls
same,"Amine level, spleen NA (noradrenaline)",dopamine-β-hydroxylase [5],100 percentages in relation to the controls
